We go through 11 compounds from patent US20190010158A1, “ANTITUMOR EFFECT POTENTIATOR COMPRISING PYRROLOPYRIMIDINE COMPOUND” (TAIHO PHARMACEUTICAL CO., LTD, priority 2015, published 2019).

For data set [1], the system named is human acute T lymphoblastic leukemia CCRF-CEM cell lines. Kind of data set: Cell growth inhibition 1 (CellTiter-Glo). Type of data set: cell-based. Particulars: culture with test compound 72 hours. (Cellular ATP, detected with luciferase, serves as a proxy for viable cell number.)
Data set [2] concerns human colon cancer HCT116 cell line. The data set can be described thus: Cell growth inhibition 2, HCT116. The format is cell-based. The conditions noted are these: HCT-116.
For data set [3], the system named is human pancreatic cancer Capan-1 cell line. The data set can be described thus: Cell growth inhibition 2, Capan-1. Type of data set: cell-based.
Data set [4] relates to human lung cancer A-427 cell line. Kind of data set: Cell growth inhibition 2, A-427. Type of data set: cell-based.
Data set [5] concerns human breast cancer MDA-MB-453 cell line. The data set can be described thus: Cell growth inhibition 2, MDA-MB-453. The format is cell-based.
Data set [6] has as its system human prostate cancer LNCAP.FGC cell line. Kind of data set: Cell growth inhibition 2, LNCaP.FGC. The format is cell-based.
Data set [7] relates to human multiple myeloma U266B1 cell line. The data set can be described thus: Cell growth inhibition 2, U266B1. The format is cell-based.
Data set [8] has as its system human skin cancer A-431 cell line. The data set can be described thus: Cell growth inhibition 2, A-431. The format is cell-based.
For data set [9], the system named is human acute leukemia MV-4-11 cell line. Kind of data set: Cell growth inhibition 2, MV-4-11. Type of data set: cell-based. Particulars: MV4-11.
Data set [10] has as its system human diffuse large B-cell lymphoma DB cell line. The data set can be described thus: Cell growth inhibition 2, DB. Type of data set: cell-based.
Data set [11] deals with HL-60. The data set can be described thus: Example 1: combined use with proteasome inhibitor, cell growth inhibition test (IC50 ratio, CI), HL-60. Type of data set: cell-based. The conditions noted are these: for CI: at ED50.
For data set [12], the system named is tumor cell lines shown in Table 40. The data set can be described thus: Example 10: combined use with HDAC inhibitor, cell growth inhibition test (IC50 ratio, CI). Particulars: U266B1; for CI: at ED50; for Comprehensive Evaluation: combined use with Reference Example Compound 55. Type of data set: cell-based.
Data set [13] deals with T1, NAE (heterodimer of APPBP1 and UBA3) (Homo sapiens, UniProt Q8TBC4).
T1 construct: amino acids 1 to 463 of human UBA3 protein; made in house; host or cells: Sf9 insect cells (baculovirus co-infection) for NAE; E. coli BL21 (DE3) for GST-UBC12
T1 sequence (Q8TBC4 1-463): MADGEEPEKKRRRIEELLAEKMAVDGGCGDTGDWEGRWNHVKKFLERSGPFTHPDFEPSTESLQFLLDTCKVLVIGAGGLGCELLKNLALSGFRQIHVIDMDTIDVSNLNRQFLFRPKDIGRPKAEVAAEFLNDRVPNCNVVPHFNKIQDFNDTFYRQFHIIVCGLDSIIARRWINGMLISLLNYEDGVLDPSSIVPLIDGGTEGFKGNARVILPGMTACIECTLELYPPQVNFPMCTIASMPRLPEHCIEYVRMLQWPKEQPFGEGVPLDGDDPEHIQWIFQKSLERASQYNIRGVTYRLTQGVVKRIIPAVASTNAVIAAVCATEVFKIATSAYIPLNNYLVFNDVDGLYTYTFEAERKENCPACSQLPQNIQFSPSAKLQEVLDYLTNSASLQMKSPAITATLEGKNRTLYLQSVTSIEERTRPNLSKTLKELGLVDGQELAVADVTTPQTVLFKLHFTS
T1 sequence (Q13564 1-534 partner): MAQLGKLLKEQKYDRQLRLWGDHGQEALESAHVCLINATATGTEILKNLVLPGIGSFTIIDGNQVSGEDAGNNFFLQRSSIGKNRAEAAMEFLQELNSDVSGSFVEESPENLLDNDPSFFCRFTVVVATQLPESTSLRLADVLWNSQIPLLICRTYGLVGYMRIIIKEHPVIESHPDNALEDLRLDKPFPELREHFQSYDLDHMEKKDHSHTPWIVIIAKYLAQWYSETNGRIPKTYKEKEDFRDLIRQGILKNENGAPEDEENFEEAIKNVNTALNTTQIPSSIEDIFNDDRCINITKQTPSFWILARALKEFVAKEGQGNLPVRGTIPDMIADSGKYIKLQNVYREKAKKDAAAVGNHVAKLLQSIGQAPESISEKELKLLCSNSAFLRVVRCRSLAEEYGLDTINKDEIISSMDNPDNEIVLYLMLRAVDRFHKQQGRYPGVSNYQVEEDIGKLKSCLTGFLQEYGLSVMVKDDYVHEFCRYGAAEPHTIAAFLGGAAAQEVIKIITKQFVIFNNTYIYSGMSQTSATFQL
Kind of data set: Nedd8 conjugation inhibitory activity (AlphaScreen). Type of data set: biochemical. Particulars: purified NAE, GST-UBC12, ATP, Biotin-Nedd8, reaction 90 minutes. (In Alpha technology, singlet oxygen from a donor bead excites a nearby acceptor bead.)

In data set [14] the test system is human osteo- and soft tissue sarcoma SJCRH30 cell line. The data set can be described thus: Cell growth inhibition 2, SJCRH30. The format is cell-based.
Data set [15] concerns human clear cell sarcoma SU-CCS-1 cell lines. Kind of data set: Example 18: tumor growth inhibition in mice, combinational treatment with doxorubicin. The format is in vivo. The conditions noted are these: day 22. An excerpt: RTVn=TVn/TV1 (equation D)
BWCn (%)=(BWn−BW1)/BW1×100 (equation F)
The test ended on day 22.
The control group was untreated.

Setting [16] is: IC50 of Reference Example Compound 55 : IC50 of other compound = 1:value.
[17] abbreviates: SU-CCS-1 in mice, intravenously 8 mg/kg/day, day 1.

Molecules are shown by their SMILES. Where a name gives a salt, the structure may show the parent alone. Where only a bound is given, the exact number is not on record here.

One may read the IC50 as the point on the concentration scale where inhibition reaches its midpoint. The low end stands for greater potency in that assay, the high end for weaker potency in that assay. On to `NS(=O)(=O)OC[C@@H]1C[C@@H](n2ccc3c(N[C@H]4CCc5ccccc54)ncnc32)CC1O` (stereo partly drawn) [Comp. Example, N-[(1S)-1-indanyl]-7-[(1R)-3α-hydroxy-4α-(sulfamoyloxymethyl)cyclopentyl]-7H-pyrrolo[2,3-d]pyrimidin-4-amine], for which the IC50 in [1] was 89 nM; in [2], 89 nM; in data set [3] it was 1500 nM; in data set [4], 180 nM; in data set [5], 1900 nM; in data set [6] it was 410 nM. Also, the IC50 was determined as 1400 nM in data set [7], 750 nM in [8], 110 nM in [9] and 560 nM in data set [10].
For `CC(C)C[C@H](NC(=O)CNC(=O)c1cc(Cl)ccc1Cl)B(O)O` [Ixazomib, ixazomib], the “IC50 Ratio” value in [11] (setting [16]) is 19. In addition, the CI was determined as 0.82 in data set [11] (Reference Example Compound 55:other compound 1:10) and 0.94 in data set [11] (Reference Example Compound 55:other compound 1:30). Besides, the “Comprehensive Evaluation” value in [11] (combined use with Reference Example Compound 55) is given as “Additive (0.9-1.10)”.
In the case of `Cc1[nH]c2ccccc2c1CCNCc1ccc(/C=C/C(=O)NO)cc1` [Panobinostat, panobinostat], the “IC50 Ratio” value in [12] (setting [16]) was 0.08. Further, the results for the CI in data set [12] (Reference Example Compound 55:other compound 1:0.07) and in data set [12] (Reference Example Compound 55:other compound 1:0.22) were 0.90 and 0.61, respectively. In data set [12], the “Comprehensive Evaluation” value was “Additive (0.9-1.10)”.
Consider `Nc1ncnc2c1c(C#Cc1c(F)cccc1F)cn2[C@@H]1O[C@H](CNS(N)(=O)=O)[C@@H](O)[C@H]1O` [Reference Example 1, 4-Amino-5-[2-(2,6-difluorophenyl)ethynyl]-7-[(2R,3R,4S,5R)-3,4-dihydroxy-5-[(sulfamoylamino)methyl]tetrahydrofuran-2-yl]pyrrolo[2,3-d]pyrimidine], for which the IC50 in data set [13] is at most 0.003 µM; in [1] it was 6.2 nM; in data set [2], 16 nM; in data set [3], 730 nM; in [4] it was 22 nM; in data set [5], 460 nM. Further, the IC50 is 650 nM in [6]; over 10000 nM in data set [14]; 110 nM in data set [7]; 730 nM in [8]; 21 nM in data set [9]; 260 nM in data set [10].
With `CNc1cc(F)c(C#Cc2cn([C@@H]3O[C@H](CNS(N)(=O)=O)[C@@H](O)[C@H]3O)c3ncnc(N)c23)c(F)c1` [Reference Example 25, 4-Amino-5-[2-[2,6-difluoro-4-(methylamino)phenyl]ethynyl]-7-[(2R,3R,4S,5R)-3,4-dihydroxy-5-[(sulfamoylamino)methyl]tetrahydrofuran-2-yl]pyrrolo[2,3-d]pyrimidine], the IC50 in data set [1] came out at 1.7 nM; in [2], 6.4 nM; in data set [3] it was 380 nM; in data set [4], 5.4 nM; in data set [5], 480 nM; in data set [6], 500 nM. Also, the IC50 was 5100 nM in data set [14]; 220 nM in [7]; 120 nM in data set [8]; 11 nM in data set [9]; 120 nM in data set [10].
Regarding `Nc1ncnc2c1c(C#Cc1c(F)cc(N3CC[C@@H](F)C3)cc1F)cn2[C@@H]1O[C@H](CNS(N)(=O)=O)[C@@H](O)[C@H]1O` [Reference Example 29, 4-Amino-5-[2-[2,6-difluoro-4-[(3R)-3-fluoropyrrolidin-1-yl]phenyl]ethynyl]-7-[(2R,3R,4S,5R)-3,4-dihydroxy-5-[(sulfamoylamino)methyl]tetrahydrofuran-2-yl]pyrrolo[2,3-d]pyrimidine], the IC50 was 4 nM in data set [1]; 14 nM in [2]; 560 nM in [3]; 49 nM in data set [4]; 640 nM in [5]; 280 nM in data set [6]. The IC50 is 6600 nM in [14]; 420 nM in [7]; 560 nM in data set [8]; 20 nM in data set [9]; 150 nM in data set [10].
In the case of `CN1CCOc2c1ccc(F)c2C#Cc1cn([C@@H]2O[C@H](CNS(N)(=O)=O)[C@@H](O)[C@H]2O)c2ncnc(N)c12` [Reference Example 64, 8-[2-[4-Amino-7-[(2R,3R,4S,5R)-3,4-dihydroxy-5-[(sulfamoylamino)methyl]tetrahydrofuran-2-yl]pyrrolo[2,3-d]pyrimidin-5-yl]ethynyl]-7-fluoro-4-methyl-2,3-dihydro-1,4-benzoxazine], the half-inhibitory concentration (IC50) in [1] was found to be 5.8 nM; in [2], 14 nM; in data set [3], 1200 nM; in data set [4] it was 91 nM; in [5] it was 140 nM; in [6], 680 nM. In addition, the IC50 in data set [14] came to 560 nM; in data set [8], 710 nM; in data set [9], 32 nM; in data set [10] it was 110 nM.
As to `CN1CCOc2c1ccc(F)c2C#Cc1cn([C@@H]2C[C@H](CNS(N)(=O)=O)[C@@H](O)[C@H]2O)c2ncnc(N)c12` [Reference Example 122, 8-[2-[4-amino-7-[(1R,2S,3R,4R)-2,3-dihydroxy-4-[(sulfamoylamino)methyl]cyclopentyl]pyrrolo[2,3-d]pyrimidin-5-yl]ethynyl]-7-fluoro-4-methyl-2,3-dihydro-1,4-benzoxazine], the IC50 in data set [1] is 8.8 nM; in data set [2], 18 nM; in data set [3], 890 nM; in data set [4] it was 22 nM; in data set [5], 76 nM; in data set [6], 510 nM. For the same compound, the concentration for half-maximal inhibition (IC50) in data set [14] amounted to 130 nM; in data set [7], 270 nM; in data set [8], 1600 nM; in data set [9], 38 nM; in data set [10], 120 nM.
With `CSc1cccc(F)c1C#Cc1cn([C@@H]2C=C(CNS(N)(=O)=O)[C@@H](O)[C@H]2O)c2ncnc(N)c12` [Reference Example 130, 4-Amino-7-[(1R,4R,5S)-4,5-dihydroxy-3-[(sulfamoylamino)methyl]cyclopent-2-en-1-yl]-5-[2-(2-fluoro-6-methylsulfanyl-phenyl)ethynyl]pyrrolo[2,3-d]pyrimidine], the IC50 in data set [1] stood at 3.2 nM; in [2] it was 12 nM; in data set [3], 210 nM; in [4] it was 6.4 nM; in [5], 32 nM; in data set [6] it was 460 nM. Besides, the IC50 was 170 nM in data set [14]; 24 nM in data set [7]; 160 nM in [8]; 25 nM in [9]; 130 nM in data set [10].
On to `O=C(CCCCCCC(=O)Nc1ccccc1)NO` [Vorinostat, vorinostat], for which the “Comprehensive Evaluation” value in [12] is given as “Additive (0.9-1.10)”.
As for `COc1cccc2c1C(=O)c1c(O)c3c(c(O)c1C2=O)C[C@@](O)(C(=O)CO)C[C@@H]3O[C@H]1C[C@H](N)[C@H](O)[C@H](C)O1` [doxorubicin hydrochloride], the “RTV22 compared with the control group (Dunnett's test)” value in data set [15] (SU-CCS-1 in BALB/cAJcl-nu/nu mice, reference example compound 12.5 or 25 mg/kg/day iv day 1 and 8, doxorubicin hydrochloride 8 mg/kg/day iv day 1) was “significantly lower”. For the same compound, in data set [15] (setting [17]), the “BWC22 (%) Mean ± SD” value is recorded as −0.3 ± 2.6%, the “RTV22 Mean ± SD” value stood at 6.6 ± 0.8 and the “T/C22 (%)” value amounted to 74%.
